Experiments:
[1] = test system: Monocytes-derived Dendritic cells (MDDCs); assay: surface receptor expression on monocyte-derived dendritic cells, flow cytometry; format: cell-based, human
Procedure: Materials and Methods. Uterine epithelial cell line (ECC-1) was cultured according to established methods to establish cellular polarity with apical and basolateral compartments (Schaefer, et al. (2004) Immunology 112:428-436). The formation of tight junctions by the epithelial cell monolayer was routinely monitored by measurement of transepithelial resistance (TER) (Richardson, et al. (1995) Biol. Reprod. 53:488-498). […] The pooled media was centrifuged for 5 minutes at 10,000 g and stored at −80° C. for use in subsequent studies.
Peripheral blood mononuclear cells (PBMC) were obtained from residues of platelet pheresis according to known methods (Dietz, et al. (2006) Transfusion 46:2083-2089). Monocytes were subsequently enriched with Rosette Sep reagent (StemCell, Vancouver, BC). Blood specimens were from healthy adult males. Monocytes-derived Dendritic cells (MDDCs) were in vitro generated with GM-CSF (50 ng/ml) and IL-4 (50 ng/ml) (PeproTech Inc, Rocky Hill, N.J.) (Sallusto Lanzavecchia (1994) J. Exp. Med. 179:1109-1118). MDDCs were differentiated for 7 days in the presence or absence of 24-hour conditioned medium (1:1 dilution) obtained from ECC-1. In some experiments TGF-beta receptor 1 blocker, SB431542 (10 μM; Tocris Cookson, Inc., St. Louis, Mo.) (Eriksson, et al. (2006) Am. J. Reprod. Immunol. 56:321-328; Shen, et al. (2007) Clin. Exp. Immunol. 149(1):155-61) was simultaneously added with ECC-1 CM for the entire duration of the differentiation. As positive control for TGF-beta effects on MDDCs, experimental conditions were included in which MDDCs were differentiated with recombinant human TGF-beta1 at three different concentrations (0.1, 1 and 10 ng/mL) in the presence or absence of SB431542. Following 7 days of culture, cells were harvested, washed and subsequently used for flow cytometry analyses.
Following six days of in vitro differentiation, surface staining of MDDCs was performed with the following fluorochrome-labeled monoclonal antibodies: CD1a (HI149), CD14 (61D3), from Ebioscience (San Diego, Calif.); and CD163 (215927), CCR5 (45531), CXCR4 (12G5), DC-SIGN (120507) from R&D Systems (Minneapolis, Minn.). Matched isotype controls for the antibodies were used to control for non-specific binding. Following antibody staining, cells were washed with staining buffer and fixed with 2% methanol-free paraformaldehyde in 1×PBS (2% PFA), followed by analysis with a Becton Dickinson FACS CALIBUR (San Jose, Calif.). The acquired FACS data were analyzed by CELL QUEST (BD Biosciences).
Statistical analysis was performed using two-way analysis of variance (ANOVA) ([…] Prism Version 5.0; […] Software Inc., San Diego, Calif.). A value of P<0.05 was considered significant.

[2] = systemic inflammatory response to E. coli endotoxin after hydrocortisone pre-treatment in volunteers; format: in vivo, human; settings: for plasma G-CSF concentrations after LPS, vs Control Group: multiplex immunobead
From the text: Materials and Methods. Participants (n=36) were healthy male and female volunteers who were taking no chronic medications (other than oral contraceptives) and who were between the ages of 18 and 55.
On Day 1 of the study, participants were randomized in a double-blind manner to a Control Group, a Stress Group or a Pharm Group. A peripheral intravenous catheter was inserted in a hospital outpatient facility where participants remained during the day. For six hours, Control Group participants received intravenous saline at […] by infusion pump; Stress Group participants received 1.5 μg/kg/minute hydrocortisone (SOLUCORTEF®, Upjohn) in normal saline at 10 ml/hour, and Pharm Group participants received 3.0 μg/kg/minute hydrocortisone in normal saline at 10 ml/hour. The following day (Day 2), participants were admitted to an acute care facility where a peripheral intravenous catheter was again inserted in a proximal arm vein. Continuous electrocardiographic and pulse oximetry measurements were initiated; blood pressure and core temperature were measured every 15 minutes for the next five hours and every 30 minutes for the next 4 hours. Participants received 10 ml/kg lactated Ringer's solution intravenously over the first 2 hours after which the infusion was decreased to 1.5 ml/kg/hour. After the first hour, participants were administered 2 ng/kg E. coli endotoxin intravenously over 2 minutes. Participants remained in the acute care facility for remainder of the day with continuous nursing care and under the direct supervision of a physician. The intravenous catheter was removed after 9 hours. The following day (Day 3) and 2 days later (Day 5), repeat blood samples were obtained by venipuncture.
Salivary free cortisol measurements were made on Day 1 to compare the in vivo cortisol pre-treatment with laboratory reports that typically test the effects of free glucocorticoid concentrations. On Day 2 of the study, total plasma cortisol was measured to allow for comparison with the many clinical reports that have assessed these hormones during experimental endotoxemia and in endotoxemic patients. For salivary free cortisol measurements, saliva samples were collected with a […]™ collection device and stored at −80° C. until analysis by SALIMETRICS® Expanded Range High Sensitivity Salivary Cortisol Enzyme Immunoassay Kit (State College, Pa.). The analytical sensitivity of this assay is 3 ng/dL. For total cortisol, plasma was separated from heparinized whole blood and stored at −80° C. until analysis for plasma cortisol on an […]® 1000 analyzer using a Siemens Cortisol kit (Los Angeles, Calif.). The analytical sensitivity of this assay is 0.2 μg/dL. All adrenocorticotropic hormone (ACTH) measurements were performed on the […]® 1000 analyzer using a Siemens ACTH kit (Los Angeles, Calif.). The analytical sensitivity of this assay is 9 pg/mL. C-reactive protein (CRP) measurements were performed on the Roche P Module using the Roche High Sensitivity CRP kit (Indianapolis, Ind.). Analytical sensitivity of this assay is 0.1 mg/L. Complete blood counts were performed on the ADVIA 120® Hematology Analyzer using Siemens reagents (Ramsey, Minn.).
Plasma samples were collected and frozen at −80° C. for batched measurement of TNFalpha, IL-6 and IL-10 concentrations. TNFalpha was measured using a TNFalpha sandwich ELISA (paired antibodies; BD Biosciences Pharmingen, San Diego, Calif.). IL-6 levels were determined using an IL-6 ELISA kit (Peprotech, Rocky Hill, N.J.). IL-10 was measured using an IL-10 ELISA kit (Biosource, Camarillo, Calif.). Further cytokine testing was completed on frozen samples using multiplex immunobead technology (Luminex Corp.) which combines the principle of a sandwich immunoassay with fluorescent bead-based technology, allowing individual and multiplex analysis of multiple analytes in a single microtiter well. […]

HIV-1 X4/T-tropic IIIB = assay: TZM-bl infectivity assay, HIV-1 IIIB; format: cell-based
Procedure: (§1) The TZM indicator cell line is a HeLa cell derivative that expresses high levels of CD4, CCR5 and CXCR4 (Wei, et al. (2002) Antimicrob. Agents Chemother. 46(6):1896-905). The cells contain HIV long terminal repeat (LTR)-driven β-galactosidase and luciferase reporter cassettes that are activated by HIV tat expression.
(§2) TZM cells were seeded at 2×10^4 cells per well in a 96-well microtiter plate and allowed to adhere overnight at 37° C. Varying doses of recombinant human Trappin-2/Elafin (Peprotech, Rocky Hill, N.J.) were incubated with HIV-1 IIIB and BaL at multiplicity of infection (MOI) 1 for 1 hour at 37° C. in a final volume of 100 μl. Following incubation, the media was aspirated from TZM cells and the virus plus Trappin-2/Elafin was added to the cells along with 100 μl of TZM media. Luciferase activity was measured after 48 hours at 37° C. with 5% CO2 in a humidified incubator. Briefly, the supernatants were aspirated, and the cells were lysed with a BETA GLO luciferase assay substrate. Light intensity of each well was measured using a luminometer. Uninfected cells were used to determine background luminescence. All infectivity assays were performed in quadruplicate.
(§3) Other experiments were conducted in order to determine whether the inhibitory effects of Trappin-2/Elafin were at the cell surface level such as the blocking of a co-receptor. For these experiments, varying doses of Trappin-2/Elafin were directly added to TZM cells and incubated for 1 hour at 37° C. prior to washing with 1×PBS and addition of IIIB or BaL viruses. In additional experiments to determine possible post-infection mechanisms of inhibition by Trappin-2/Elafin, TZM cells were infected with HIV-1 IIIB and BaL at MOI 1 and were washed at 6 hours and 24 hours post-infection followed by the addition of 10 ng/ml rTrappin-2/Elafin. Assays were developed at 48 hours by addition of the BETA-GLO substrate and measuring relative light units using a luminometer.
(§4) Since HIV-1 is an important sexually transmitted pathogen, the activity of recombinant Trappin-2/Elaf in (rTrappin-2/Elafin) was evaluated against HIV-1 X4/T-tropic IIIB and R5/M-tropic BaL. HIV-1 IIIB and BaL were incubated with rTrappin-2/Elafin at 0.01, 0.1, 1, and 10 ng/ml for 1 hour at 37° C. TZM-bl indicator cells were plated the previous day at 25,000 cells per well and grown to 70-80% confluence. The virus-Trappin-2/Elafin mixture was added to the TZM cells and incubated for 48 hours at 37° C. At the end of the incubation period, BETA-GLO substrate was added to the cells and viral infection was quantified using a luminometer, expressed as relative light units (RLU). The data was expressed as percent of control with virus-only control set at 100%. […] Therefore, the concentrations of Trappin-2/Elafin showing anti-HIV-1 activity were in the range of physiological levels of this molecule that were secreted by the FRT epithelial cells. Since the inhibitory activity was observed as a result of pre-incubation of HIV-1 and rTrappin-2/Elafin, it is contemplated that the effect of Trappin-2/Elafin on viral infection was direct. […]
(§5) Laboratory-adapted viral strains HIV-1 IIIB (×4) and BaL (R5) were obtained and virus stocks were propagated in PHA-stimulated human PBMC and stored frozen at −80° C. Virus stocks produced in PBMC of molecularly cloned HIV-1 NL4.3 (×4; lab-adapted) and YU-2.c (R5; directly cloned without culture) were obtained. Virus titers were determined on TZM-bl cells as described herein. Also used was a PBMC-derived virus stock of pCH077.c, a recently generated Clade B infectious molecular clone matching the nucleotide sequence determined to be the transmitted/founder virus sequence of CHAVI subject 700010077. […]

HIV-1 R5/M-tropic BaL = assay: TZM-bl infectivity assay, HIV-1 BaL; format: cell-based; settings: for post-infection inhibition, BaL: 20 ng/mL
Procedure: as §1, §2, §3, §4, §5

[3] = cells pre-incubated 1 hour, washed before virus
[4] = virus pre-incubated 1 hour with 2, 20, 200 ng/mL, 48 hours

Q: With NC(=O)c1ccc(-c2nc(-c3ccc4c(c3)OCO4)c(-c3ccccn3)[nH]2)cc1 [SB431542] as the compound, how does the “modulatory effect of ECC-1 CM (suppression of DC-SIGN expression on MDDCs)” value ([1]; SB431542 10 μM added with ECC-1 CM during differentiation) read?
A: Its value is “abrogated”.

Q: What about the “expression of CD1a by CM-DC” value ([1]; TGF-beta receptor blocker with ECC-1 CM) of the same compound?
A: Its value is “no significant effect”.

Q: And the “UEC conditioned medium effects on DC (enhanced CCR5 and CXCR4, suppressed DC-SIGN)” value ([1]; in vitro differentiation)?
A: The value was “abolished these effects”.

Q: Which “release of early pro-inflammatory molecules” value ([2]; 1.5 μg/kg/minute at 10 ml/hr for six hours) does the source give for C[C@]12CCC(=O)C=C1CC[C@@H]1[C@@H]2[C@@H](O)C[C@@]2(C)[C@H]1CC[C@]2(O)C(=O)CO [hydrocortisone] here?
A: The value was “significant enhancement”.

Q: And the “Plasma IL-6 after LPS, vs Control Group” value ([2]; Pharm 3 μg/kg/min)?
A: The value was “no difference”.

Q: And the “Plasma IL-10 after LPS, vs Control Group” value ([2]; Pharm 3 μg/kg/min)?
A: Its value is “no difference”.

Q: What about the “TNF-alpha concentrations in plasma after LPS, vs Control Group” value ([2]; Pharm 3 μg/kg/min) of the same compound?
A: The value was “not significantly different”.

Q: And the “plasma G-CSF concentrations after LPS, vs Control Group” value ([2]; Pharm 3 μg/kg/min)?
A: Its value is “no difference”.

Q: And the “TNF-alpha concentrations in plasma after LPS, vs Control Group” value ([2]; Stress 1.5 μg/kg/min)?
A: Its value is “not significantly different”.

Q: And the “ACTH concentrations, vs Control Group” value ([2]; Stress 1.5 μg/kg/min, 3 and 4 hours after LPS injection)?
A: The value was “higher”.

Q: What about the “plasma G-CSF concentrations after LPS, vs Control Group” value ([2]; Stress 1.5 μg/kg/min) of the same compound?
A: The value was “significant augmentation”.

Q: What about the “Plasma IL-6 after LPS, vs Control Group” value ([2]; Stress 1.5 μg/kg/min, p<0.005) of the same compound?
A: Its value is “significantly higher”.

Q: What about the “Plasma IL-10 after LPS, vs Control Group” value ([2]; Stress 1.5 μg/kg/min, p<0.05) of the same compound?
A: The value was “significantly lower”.

Q: For “rCCL20/MIP3α: recombinant human CCL20/MIP3α (Peprotech)”, which “post-infection inhibition, IIIB” value (HIV-1 X4/T-tropic IIIB; added 6 and 24 hours post-infection, 20 ng/mL) is on record?
A: The value was “no significant post-infection inhibition”.

Q: What about the “inhibition of X4/IIIB after pre-incubation of TZM cells” value (HIV-1 X4/T-tropic IIIB; [3]) of the same compound?
A: Its value is “no significant inhibition”.

Q: And the “inhibition of X4/IIIB” value (HIV-1 X4/T-tropic IIIB; [4])?
A: Its value is “inhibited”.

Q: What about the “post-infection inhibition, BaL” value (HIV-1 R5/M-tropic BaL; added 6 hours post-infection) of the same compound?
A: Its value is “slight inhibition”.

Q: And the “post-infection inhibition, BaL” value (HIV-1 R5/M-tropic BaL; added 24 hours post-infection)?
A: The value was “no significant post-infection inhibition”.

Q: And the “inhibition of R5/BaL after pre-incubation of TZM cells” value (HIV-1 R5/M-tropic BaL; [3])?
A: The value was “no significant inhibition”.

Q: And the “inhibition of R5/BaL” value (HIV-1 R5/M-tropic BaL; [4])?
A: The value was “inhibited”.
